Source: ChEMBL document CHEMBL1208667, “Permanent positive charge strongly influences DNA/RNA binding and antiproliferative activity of urea-phenanthridinium conjugates” (Eur J Med Chem, 2010)
The source made the active and inactive calls. The rule behind the calls is not given here.

Tested on: Nucleic Acid
Assay: Binding affinity to poly A-poly U RNA assessed as change in melting temperature at compound to DNA molar ratio of 0.2 at pH 7 by thermal denaturation assay
Format: nucleic-acid assay
Settings: not given

Row | ΔTm [°C] | SMILES
1 | 2.3 | Cc1c2cc(NC(=O)NCCCCCCCCCNC(=O)Nc3ccc4c(c3)c(C)[n+](C)c3ccccc43)ccc2c2ccccc2[n+]1C.O=S(=O)([O-])O.O=S(=O)([O-])O

Tested on: Calf thymus DNA
Assay: Binding affinity to calf thymus DNA at compound to DNA molar ratio of 0.1 to 0.5 at pH 5 by circular dichroism
Format: nucleic-acid assay
Settings: Bos taurus

Row | Activity | SMILES
2 | Active | Cc1c2cc(NC(=O)NCCCCCCCCCNC(=O)Nc3ccc4c(c3)c(C)[n+](C)c3ccccc43)ccc2c2ccccc2[n+]1C.O=S(=O)([O-])O.O=S(=O)([O-])O

Tested on: Nucleic Acid
Assay: Binding affinity to poly A-poly U RNA at compound to DNA molar ratio of 0.1 to 0.5 at pH 5 by circular dichroism
Format: nucleic-acid assay
Settings: not given

Row | Activity | SMILES
3 | Active | Cc1c2cc(NC(=O)NCCCCCCCCCNC(=O)Nc3ccc4c(c3)c(C)[n+](C)c3ccccc43)ccc2c2ccccc2[n+]1C.O=S(=O)([O-])O.O=S(=O)([O-])O

Tested on: Nucleic Acid
Assay: Binding affinity to poly A-poly U RNA at compound to DNA molar ratio of 0.1 to 0.5 at pH 7 by circular dichroism
Format: nucleic-acid assay
Settings: not given

Row | Activity | SMILES
4 | Active | Cc1c2cc(NC(=O)NCCCCCCCCCNC(=O)Nc3ccc4c(c3)c(C)[n+](C)c3ccccc43)ccc2c2ccccc2[n+]1C.O=S(=O)([O-])O.O=S(=O)([O-])O

Tested on: MIA PaCa-2
Assay: Cytotoxicity against human MIAPaCa2 cells at 100 uM after 72 hrs by MTT assay
Format: functional
Settings: MIA PaCa-2, 72 h

Row | SMILES | inhibition at 100 µM [%]
5 | Cc1c2cc(NC(=O)NCCCCCCCCCNC(=O)Nc3ccc4c(c3)c(C)[n+](C)c3ccccc43)ccc2c2ccccc2[n+]1C.O=S(=O)([O-])O.O=S(=O)([O-])O | 26.8

Tested on: HEp-2
Assay: Cytotoxicity against human Hep2 cells at 0.1 to 100 uM after 72 hrs by MTT assay
Format: functional, cell-based
Settings: not given

Row | SMILES | Activity
6 | Cc1c2cc(NC(=O)NCCCCCCCCCNC(=O)Nc3ccc4c(c3)c(C)[n+](C)c3ccccc43)ccc2c2ccccc2[n+]1C.O=S(=O)([O-])O.O=S(=O)([O-])O | inactive

Tested on: HeLa
Assay: Cytotoxicity against human HeLa cells at 0.1 to 100 uM after 72 hrs by MTT assay
Format: functional, cell-based
Settings: not given

Row | SMILES | Activity
7 | Cc1c2cc(NC(=O)NCCCCCCCCCNC(=O)Nc3ccc4c(c3)c(C)[n+](C)c3ccccc43)ccc2c2ccccc2[n+]1C.O=S(=O)([O-])O.O=S(=O)([O-])O | inactive

Tested on: Nucleic Acid
Assay: Binding affinity to AMP in citric acid buffer at pH 5 by fluorescence titration assay relative to control
Format: nucleic-acid assay
Settings: not given

Row | RFU | SMILES
8 | -38.5 | Cc1c2cc(NC(=O)NCCCCCCCCCNC(=O)Nc3ccc4c(c3)c(C)[n+](C)c3ccccc43)ccc2c2ccccc2[n+]1C.O=S(=O)([O-])O.O=S(=O)([O-])O

Tested on: Nucleic Acid
Assay: Binding affinity to GMP in citric acid buffer at pH 5 by fluorescence titration assay relative to control
Format: nucleic-acid assay
Settings: not given

Row | RFU | SMILES
9 | -7.2 | Cc1c2cc(NC(=O)NCCCCCCCCCNC(=O)Nc3ccc4c(c3)c(C)[n+](C)c3ccccc43)ccc2c2ccccc2[n+]1C.O=S(=O)([O-])O.O=S(=O)([O-])O

Tested on: Nucleic Acid
Assay: Binding affinity to CMP in citric acid buffer at pH 5 by fluorescence titration assay relative to control
Format: nucleic-acid assay
Settings: not given

Row | RFU | SMILES
10 | -6.4 | Cc1c2cc(NC(=O)NCCCCCCCCCNC(=O)Nc3ccc4c(c3)c(C)[n+](C)c3ccccc43)ccc2c2ccccc2[n+]1C.O=S(=O)([O-])O.O=S(=O)([O-])O

Tested on: Nucleic Acid
Assay: Binding affinity to UMP in citric acid buffer at pH 5 by fluorescence titration assay relative to control
Format: nucleic-acid assay
Settings: not given

Row | RFU | SMILES
11 | -15.8 | Cc1c2cc(NC(=O)NCCCCCCCCCNC(=O)Nc3ccc4c(c3)c(C)[n+](C)c3ccccc43)ccc2c2ccccc2[n+]1C.O=S(=O)([O-])O.O=S(=O)([O-])O

Tested on: Nucleic Acid
Assay: Binding affinity to AMP in sodium cacodylate buffer at pH 7 by fluorescence titration assay relative to control
Format: nucleic-acid assay
Settings: not given

Row | RFU | SMILES
12 | -55 | Cc1c2cc(NC(=O)NCCCCCCCCCNC(=O)Nc3ccc4c(c3)c(C)[n+](C)c3ccccc43)ccc2c2ccccc2[n+]1C.O=S(=O)([O-])O.O=S(=O)([O-])O

Tested on: Nucleic Acid
Assay: Binding affinity to GMP in sodium cacodylate buffer at pH 7 by fluorescence titration assay relative to control
Format: nucleic-acid assay
Settings: not given

Row | RFU | SMILES
13 | -16.7 | Cc1c2cc(NC(=O)NCCCCCCCCCNC(=O)Nc3ccc4c(c3)c(C)[n+](C)c3ccccc43)ccc2c2ccccc2[n+]1C.O=S(=O)([O-])O.O=S(=O)([O-])O

Tested on: Nucleic Acid
Assay: Binding affinity to CMP in sodium cacodylate buffer at pH 7 by fluorescence titration assay relative to control
Format: nucleic-acid assay
Settings: not given

Row | RFU | SMILES
14 | -9.4 | Cc1c2cc(NC(=O)NCCCCCCCCCNC(=O)Nc3ccc4c(c3)c(C)[n+](C)c3ccccc43)ccc2c2ccccc2[n+]1C.O=S(=O)([O-])O.O=S(=O)([O-])O

Tested on: Calf thymus DNA
Assay: Binding affinity to calf thymus DNA assessed as melting temperature at compound to DNA molar ratio of 0.2 at pH 5 by thermal denaturation assay
Format: nucleic-acid assay
Settings: Bos taurus

Row | Tm [°C] | SMILES
15 | 73.8 | Cc1c2cc(NC(=O)NCCCCCCCCCNC(=O)Nc3ccc4c(c3)c(C)[n+](C)c3ccccc43)ccc2c2ccccc2[n+]1C.O=S(=O)([O-])O.O=S(=O)([O-])O

Tested on: Calf thymus DNA
Assay: Binding affinity to calf thymus DNA assessed as melting temperature at compound to DNA molar ratio of 0.3 at pH 5 by thermal denaturation assay
Format: nucleic-acid assay
Settings: Bos taurus

Row | Tm [°C] | SMILES
16 | 74 | Cc1c2cc(NC(=O)NCCCCCCCCCNC(=O)Nc3ccc4c(c3)c(C)[n+](C)c3ccccc43)ccc2c2ccccc2[n+]1C.O=S(=O)([O-])O.O=S(=O)([O-])O

Tested on: Nucleic Acid
Assay: Binding affinity to […] assessed as melting temperature at compound to DNA molar ratio of 0.3 at pH 5 by thermal denaturation assay
Format: nucleic-acid assay
Settings: not given

Row | Tm [°C] | SMILES
17 | 57.7 | Cc1c2cc(NC(=O)NCCCCCCCCCNC(=O)Nc3ccc4c(c3)c(C)[n+](C)c3ccccc43)ccc2c2ccccc2[n+]1C.O=S(=O)([O-])O.O=S(=O)([O-])O

Tested on: Calf thymus DNA
Assay: Binding affinity to calf thymus DNA assessed as melting temperature at compound to DNA molar ratio of 0.3 at pH 7 by thermal denaturation assay
Format: nucleic-acid assay
Settings: Bos taurus

Row | Tm [°C] | SMILES
18 | 85.1 | Cc1c2cc(NC(=O)NCCCCCCCCCNC(=O)Nc3ccc4c(c3)c(C)[n+](C)c3ccccc43)ccc2c2ccccc2[n+]1C.O=S(=O)([O-])O.O=S(=O)([O-])O

Tested on: Nucleic Acid
Assay: Binding affinity to […] assessed as melting temperature at compound to DNA molar ratio of 0.2 at pH 7 by thermal denaturation assay
Format: nucleic-acid assay
Settings: not given

Row | Tm [°C] | SMILES
19 | 69.1 | Cc1c2cc(NC(=O)NCCCCCCCCCNC(=O)Nc3ccc4c(c3)c(C)[n+](C)c3ccccc43)ccc2c2ccccc2[n+]1C.O=S(=O)([O-])O.O=S(=O)([O-])O

Tested on: Nucleic Acid
Assay: Binding affinity to […] assessed as melting temperature at compound to DNA molar ratio of 0.3 at pH 7 by thermal denaturation assay
Format: nucleic-acid assay
Settings: not given

Row | Tm [°C] | SMILES
20 | 70.4 | Cc1c2cc(NC(=O)NCCCCCCCCCNC(=O)Nc3ccc4c(c3)c(C)[n+](C)c3ccccc43)ccc2c2ccccc2[n+]1C.O=S(=O)([O-])O.O=S(=O)([O-])O

Tested on: Nucleic Acid
Assay: Binding affinity to poly A-poly U RNA assessed as melting temperature at compound to DNA molar ratio of 0.2 at pH 7 by thermal denaturation assay
Format: nucleic-acid assay
Settings: not given

Row | Tm [°C] | SMILES
21 | 53.8 | Cc1c2cc(NC(=O)NCCCCCCCCCNC(=O)Nc3ccc4c(c3)c(C)[n+](C)c3ccccc43)ccc2c2ccccc2[n+]1C.O=S(=O)([O-])O.O=S(=O)([O-])O

Tested on: Nucleic Acid
Assay: Binding affinity to poly A-poly U RNA assessed as biphasic transitions of change in melting temperature at compound to DNA molar ratio of 0.2 at pH 5 by thermal denaturation assay
Format: nucleic-acid assay
Settings: not given

Row | ΔTm [°C] | SMILES
22 | -1.3 | Cc1c2cc(NC(=O)NCCCCCCCCCNC(=O)Nc3ccc4c(c3)c(C)[n+](C)c3ccccc43)ccc2c2ccccc2[n+]1C.O=S(=O)([O-])O.O=S(=O)([O-])O

Tested on: Nucleic Acid
Assay: Binding affinity to poly A-poly U RNA assessed as biphasic transitions of melting temperature at compound to DNA molar ratio of 0.2 at pH 5 by thermal denaturation assay
Format: nucleic-acid assay
Settings: not given

Row | Tm [°C] | SMILES
23 | 31 | Cc1c2cc(NC(=O)NCCCCCCCCCNC(=O)Nc3ccc4c(c3)c(C)[n+](C)c3ccccc43)ccc2c2ccccc2[n+]1C.O=S(=O)([O-])O.O=S(=O)([O-])O
